From patent publication US6727237B2, “Inhibitors of bacterial NAD synthetase” (priority 1998, dated 2004) come the findings set out here.

Assay [1] concerns Staphylococcus epidermitis. Kind of assay: Bacterial growth inhibition screen in LB media (absorbance 595 nm), percent inhibition. Particulars: S. epidermitis.
The target of assay [2] is T1, bacterial NAD synthetase enzyme (Bacillus subtilis, UniProt P08164).
T1 sequence (P08164 2-272 limits assumed): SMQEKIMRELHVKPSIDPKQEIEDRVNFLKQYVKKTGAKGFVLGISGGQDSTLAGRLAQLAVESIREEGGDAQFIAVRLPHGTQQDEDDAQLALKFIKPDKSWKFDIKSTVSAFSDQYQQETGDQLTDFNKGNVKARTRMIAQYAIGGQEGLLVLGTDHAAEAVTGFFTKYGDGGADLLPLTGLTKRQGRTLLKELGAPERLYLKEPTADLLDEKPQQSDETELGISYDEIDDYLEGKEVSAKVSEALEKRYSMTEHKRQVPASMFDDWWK
Kind of assay: biochemical. It is filed as biochemical.

Setting [3] is: compound at 0.2 mM (Table 312A).

Molecules are shown by their SMILES.

In general, % Inhibition refers to the percentage by which the read-out fell short of the control.

For the compound `CC(C)c1ccc2[nH]c(CCCCOC(=O)c3ccccc3-c3ccccc3)cc2c1` [Compound 630], the “% Inhibition” value is given as 13.69% in assay [1] (concentration screened 100 uM) and 10.72% in assay [2] (setting [3]).

As for `O=[N+]([O-])c1ccc2[nH]c(CCCC[n+]3cccc4ccccc43)cc2c1` [Compound 439], the “% Inhibition” value in assay [1] (concentration screened 10 uM) came out at 30.57%; in assay [2] (compound at 0.1 mM (Table 314)), 2.57%.

Take `CN(C)c1ccc(C(=O)OCCCCCCCCc2cc3cc(C(F)(F)F)ccc3[nH]2)cc1` [Compound 611]: the “% Inhibition” value in assay [1] (concentration screened 100 uM) amounted to 9.67%; in assay [2] (setting [3]), 15.13%.

Regarding `O=C(O)c1ccc2[nH]c(CCC[n+]3cccc4ccccc43)cc2c1` [Compound 492], the “% Inhibition” value in assay [1] (concentration screened 10 uM) is 11.00%; in assay [2] (setting [3]) it was 2.59%.

Turning to `CCCCc1ccc2[nH]c(CCCC[n+]3ccc4ccccc4c3)cc2c1` [Compound 529], the “% Inhibition” value in assay [1] (concentration screened 10 uM) was 10.15%; in assay [2] (setting [3]), 15.50%.

Turning to `c1ccc(-c2ccc3[nH]c(CCC[n+]4cccc5ccccc54)cc3c2)cc1` [Compound 432], the “% Inhibition” value turned out to be 8.91% in assay [1] (concentration screened 10 uM) and 13.21% in assay [2] (setting [3]).

Regarding `Cc1ccc2[nH]c(CCCCCC[n+]3ccc4ccccc4c3)cc2c1` [Compound 513], the “% Inhibition” value in assay [1] (concentration screened 100 uM) stood at 17.86%; in assay [2] (setting [3]), 23.66%.

Regarding `COc1ccc2[nH]c(CCCCC[n+]3cccc4ccccc43)cc2c1` [Compound 482], the “% Inhibition” value in assay [1] (concentration screened 10 uM) was 4.39%; in assay [2] (setting [3]), 17.07%.

Regarding `O=C(O)c1ccc2[nH]c(CCCCCC[n+]3ccccc3)cc2c1` [Compound 387], the figures for the “% Inhibition” value in assay [1] (concentration screened 100 uM) and in assay [2] (compound at 0.1 mM (Table 314)) were 97.64% and 29.97%, respectively.

`c1ccc(C(c2ccccc2)(c2ccccc2)c2ccc3[nH]c(CCCCCC[n+]4ccccc4)cc3c2)cc1` [Compound 339]: the “% Inhibition” value in assay [1] (concentration screened 100 uM) turned out to be 100.00%; in assay [2] (setting [3]), 42.87%.

Turning to `c1cc[n+](CCCCCCc2cc3ccccc3[nH]2)cc1` [Compound 285], the “% Inhibition” value is listed as 98.57% in assay [1] (concentration screened 100 uM) and 32.45% in assay [2] (setting [3]).

For the compound `Fc1cc(F)c2[nH]c(CCCCCC[n+]3ccccc3)cc2c1` [Compound 303], the figures for the “% Inhibition” value in assay [1] (concentration screened 100 uM) and in assay [2] (setting [3]) were 100.00% and 50.56%, respectively.

As to `CC(C)c1ccc2[nH]c(CCC[n+]3cccc4ccccc43)cc2c1` [Compound 426], the “% Inhibition” value amounted to 16.57% in assay [1] (concentration screened 10 uM) and 5.49% in assay [2] (compound at 0.1 mM (Table 314)).

Take `O=C(c1ccccc1)c1ccc2[nH]c(CCCCC[n+]3ccccc3)cc2c1` [Compound 356]: the “% Inhibition” value in assay [1] (concentration screened 100 uM) is recorded as 19.29%; in assay [2] (setting [3]) it was 1.95%.

For `c1ccc(-c2ccc3[nH]c(CCCCC[n+]4ccccc4)cc3c2)cc1` [Compound 326], the figures for the “% Inhibition” value in assay [1] (concentration screened 10 uM) and in assay [2] (compound at 0.1 mM (Table 314)) were 6.27% and 16.11%, respectively.

Turning to `O=C(c1ccccc1)c1ccc2[nH]c(CCC[n+]3cccc4ccccc43)cc2c1` [Compound 462], the “% Inhibition” value in assay [1] (concentration screened 10 uM) is on record as 3.13%; in assay [2] (setting [3]), 3.84%.

Take `O=C(c1ccccc1)c1ccc2[nH]c(CCCCCCCOC(=O)C(c3ccccc3)c3ccccc3)cc2c1` [Compound 676]: the “% Inhibition” value in assay [1] (concentration screened 10 uM) amounted to 5.52%; in assay [2] (compound at 0.1 mM (Table 314)), 1.46%.

For the compound `Fc1ccc2[nH]c(CCCCCCCC[n+]3cccc4ccccc43)cc2c1` [Compound 455], the “% Inhibition” value in assay [1] (concentration screened 10 uM) is recorded as 6.55%; in assay [2] (setting [3]), 2.69%.

For `c1ccc2[nH]c(CCCCC[n+]3cccc4ccccc43)cc2c1` [Compound 392], the “% Inhibition” value is given as 9.61% in assay [1] (concentration screened 10 uM) and 10.89% in assay [2] (setting [3]).

Take `CC(C)c1ccc2[nH]c(CCCCCCC[n+]3ccc4ccccc4c3)cc2c1` [Compound 538]: the “% Inhibition” value in assay [1] (concentration screened 10 uM) is 43.05%; in assay [2] (setting [3]) it was 40.95%.

In the case of `COC(=O)c1ccc2[nH]c(CCCCC[n+]3ccc4ccccc4c3)cc2c1` [Compound 596], the “% Inhibition” value in assay [1] (concentration screened 100 uM) is reported as 96.36%; in assay [2] (setting [3]), 56.49%.

For the compound `c1ccc(-c2ccc3[nH]c(CCCCCC[n+]4ccccc4)cc3c2)cc1` [Compound 327], the “% Inhibition” value in assay [1] (concentration screened 100 uM) worked out at 100.00%; in assay [2] (compound at 0.1 mM (Table 314)), 55.31%.

For the compound `FC(F)(F)c1ccc2cc(CCC[n+]3cccc4ccccc43)[nH]c2c1` [Compound 396], the “% Inhibition” value in assay [1] (concentration screened 10 uM) was 1.53%; in assay [2] (compound at 0.1 mM (Table 314)), 3.64%.

On to `CC(=O)c1ccc2[nH]c(CCCCCCCC[n+]3ccc4ccccc4c3)cc2c1` [Compound 587], for which the “% Inhibition” value is on record as 100.00% in assay [1] (concentration screened 100 uM) and 56.47% in assay [2] (setting [3]).

On to `CC(C)c1ccc2[nH]c(CCC[n+]3ccccc3)cc2c1` [Compound 318], for which the “% Inhibition” value in assay [1] (concentration screened 10 uM) is 2.99%; in assay [2] (setting [3]), 14.94%.

`Fc1cc(F)c2[nH]c(CCC[n+]3cccc4ccccc43)cc2c1` [Compound 408]: the “% Inhibition” value was 1.88% in assay [1] (concentration screened 10 uM) and 7.04% in assay [2] (setting [3]).

Turning to `c1ccc(C(c2ccccc2)(c2ccccc2)c2ccc3[nH]c(CCCCC[n+]4ccccc4)cc3c2)cc1` [Compound 338], the results for the “% Inhibition” value in assay [1] (concentration screened 10 uM) and in assay [2] (compound at 0.1 mM (Table 314)) were 1.67% and 27.28%, respectively.

On to `c1ccc(-c2ccc3[nH]c(CCC[n+]4ccc5ccccc5c4)cc3c2)cc1` [Compound 540], for which the “% Inhibition” value in assay [1] (concentration screened 10 uM) is given as 1.60%; in assay [2] (setting [3]), 20.20%.

For the compound `COC(=O)c1ccc2[nH]c(CCCCCCCC[n+]3ccc4ccccc4c3)cc2c1` [Compound 599], the “% Inhibition” value in assay [1] (concentration screened 100 uM) is recorded as 44.14%; in assay [2] (setting [3]), 19.31%.

As to `COC(=O)C=Cc1cn(CCCCCCC[n+]2cccc(C(=O)OC)c2)c2ccccc12` [Compound 269], the “% Inhibition” value turned out to be 46.12% in assay [1] (concentration screened 10 uM) and 51.12% in assay [2] (compound at 0.1 mM (Table 314)).

For `COC(=O)c1ccc2[nH]c(CCCCC[n+]3cccc4ccccc43)cc2c1` [Compound 488], the figures for the “% Inhibition” value in assay [1] (concentration screened 10 uM) and in assay [2] (setting [3]) were 2.72% and 17.65%, respectively.

Consider `CC(C)c1ccc2[nH]c(CCCCCC[n+]3ccccc3)cc2c1` [Compound 321], for which the “% Inhibition” value in assay [1] (concentration screened 100 uM) is given as 100.00%; in assay [2] (compound at 0.1 mM (Table 314)), 37.25%.

For the compound `CCCCc1ccc2[nH]c(CCC[n+]3ccccc3)cc2c1` [Compound 312], the figures for the “% Inhibition” value in assay [1] (concentration screened 10 uM) and in assay [2] (compound at 0.1 mM (Table 314)) were 4.60% and 10.25%, respectively.

With `c1ccc(-c2ccc3[nH]c(CCCCCCCC[n+]4cccc5ccccc54)cc3c2)cc1` [Compound 437], the “% Inhibition” value in assay [1] (concentration screened 10 uM) is listed as 11.84%; in assay [2] (setting [3]), 6.91%.

As for `COC(=O)c1ccc2[nH]c(CCCCCCC[n+]3ccc4ccccc4c3)cc2c1` [Compound 598], the “% Inhibition” value in assay [1] (concentration screened 10 uM) stood at 8.86%; in assay [2] (setting [3]), 43.33%.

As for `O=[N+]([O-])c1ccc2c(ccn2CCCCCCO)c1` [Compound 862, 6-[N-(5-nitroindolyl)]hexan-1-ol], the “% Inhibition” value in assay [1] (concentration screened 10 uM) is listed as 48.29%; in assay [2] (setting [3]), 9.05%.

Consider `Fc1cc(F)c2[nH]c(CCCCCC[n+]3cccc4ccccc43)cc2c1` [Compound 411], for which the “% Inhibition” value in assay [1] (concentration screened 10 uM) was 15.74%; in assay [2] (setting [3]), 8.84%.

As for `c1ccc2[nH]c(CCCCCCC[n+]3cccc4ccccc43)cc2c1` [Compound 394], the “% Inhibition” value in assay [1] (concentration screened 10 uM) is given as 7.03%; in assay [2] (setting [3]), 4.62%.

As for `O=C(O)c1ccc2[nH]c(CCCCCCCC[n+]3ccc4ccccc4c3)cc2c1` [Compound 605], the “% Inhibition” value in assay [1] (concentration screened 100 uM) came to 44.29%; in assay [2] (setting [3]), 68.65%.

Take `CC(C)c1ccc2[nH]c(CCCCCCCC[n+]3cccc4ccccc43)cc2c1` [Compound 431]: the “% Inhibition” value in assay [1] (concentration screened 10 uM) was found to be 22.28%; in assay [2] (setting [3]), 10.77%.

On to `O=C(c1ccccc1)c1ccc2[nH]c(CCCCCCCC[n+]3ccccc3)cc2c1` [Compound 359], for which the “% Inhibition” value in assay [1] (concentration screened 100 uM) was 1.01%; in assay [2] (setting [3]), 35.55%.

`CC(=O)c1ccc2[nH]c(CCCCCCCOC(=O)C(c3ccccc3)c3ccccc3)cc2c1` [Compound 670]: the “% Inhibition” value is on record as 5.59% in assay [1] (concentration screened 10 uM) and 4.65% in assay [2] (compound at 0.1 mM (Table 314)).

In the case of `O=C(OCCCCCCCc1cc2cc(Oc3ccccc3)ccc2[nH]1)c1ccncc1` [Compound 700], the “% Inhibition” value in assay [1] (concentration screened 10 uM) is reported as 3.61%; in assay [2] (setting [3]), 2.54%.

Consider `CC(=O)c1ccc2[nH]c(CCCCCC[n+]3cccc4ccccc43)cc2c1` [Compound 477], for which the “% Inhibition” value in assay [1] (concentration screened 10 uM) amounted to 3.69%; in assay [2] (setting [3]) it was 10.15%.

Turning to `COc1ccc2c(ccn2CCCCCCOC(=O)Cc2ccc([N+](C)(C)C)cc2)c1` [Compound 742], the figures for the “% Inhibition” value in assay [1] (concentration screened 10 uM) and in assay [2] (setting [3]) were 2.13% and 28.20%, respectively.

Consider `FC(F)(F)c1ccc2cc(CCCCC[n+]3ccc4ccccc4c3)[nH]c2c1` [Compound 506], for which the results for the “% Inhibition” value in assay [1] (concentration screened 100 uM) and in assay [2] (setting [3]) were 98.64% and 21.74%, respectively.

For `O=[N+]([O-])c1ccc2[nH]c(CCC[n+]3cccc4ccccc43)cc2c1` [Compound 438], the “% Inhibition” value in assay [1] (concentration screened 10 uM) was found to be 5.29%; in assay [2] (setting [3]), 9.45%.

As for `CN(C)c1cccc(C(=O)OCCCCCCCCc2cc3cc(Oc4ccccc4)ccc3[nH]2)c1` [Compound 617], the “% Inhibition” value in assay [1] (concentration screened 100 uM) was 19.54%; in assay [2] (setting [3]), 2.02%.

With `c1ccc(-c2ccc3[nH]c(CCCCCC[n+]4ccc5ccccc5c4)cc3c2)cc1` [Compound 543], the “% Inhibition” value in assay [1] (concentration screened 10 uM) worked out at 5.99%; in assay [2] (setting [3]), 28.06%.

`CC(C)c1ccc2[nH]c(CCCCCC[n+]3ccc4ccccc4c3)cc2c1` [Compound 537]: the “% Inhibition” value in assay [1] (concentration screened 10 uM) turned out to be 5.43%; in assay [2] (setting [3]), 10.69%.

For `CCCCc1ccc2[nH]c(CCCCC[n+]3cccc4ccccc43)cc2c1` [Compound 422], the results for the “% Inhibition” value in assay [1] (concentration screened 10 uM) and in assay [2] (setting [3]) were 9.82% and 16.23%, respectively.
